According to PubChem BioAssay (NCI):
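Briefly, cells in 96-well plates were exposed to five compound concentrations for 48 h, and endpoints were estimated by linear interpolation. TGI denotes the concentration required for complete inhibition of growth.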

Experiments:
Assay in all cases: growth of human tumour cells (NCI), 48 h
IGROV1 ovarian = system: IGROV1 ovarian
DMS 273 small cell lung = system: DMS 273 small cell lung
RXF-631 renal = system: RXF-631 renal
KM20L2 colon = system: KM20L2 colon
M19-MEL melanoma = system: M19-MEL melanoma
XF 498 CNS = system: XF 498 CNS
HOP-18 NSCLC = system: HOP-18 NSCLC
DLD-1 colon = system: DLD-1 colon
DMS 114 small cell lung = system: DMS 114 small cell lung
LXFL 529 NSCLC = system: LXFL 529 NSCLC
SNB-78 CNS = system: SNB-78 CNS

Structure (SMILES) | TGI (IGROV1 ovarian) [µM] | TGI (DMS 273 small cell lung) [µM] | TGI (RXF-631 renal) [µM] | TGI (KM20L2 colon) [µM] | TGI (M19-MEL melanoma) [µM] | TGI (XF 498 CNS) [µM] | TGI (HOP-18 NSCLC) [µM] | TGI (DLD-1 colon) [µM] | TGI (DMS 114 small cell lung) [µM] | TGI (LXFL 529 NSCLC) [µM] | TGI (SNB-78 CNS) [µM]
C=CCCCN1CCCC(C)C1=S (stereo not given) | > 100 | > 100 | > 100 | > 100 | > 100 | > 100 | > 100 | > 100 | > 100 |  | 
O=C(CC1C(=O)Nc2ccccc2S1(=O)=O)Nc1ccc(Cl)cc1 (stereo not given) | 37.7 | 45.6 | > 100 | > 100 | 61.9 | 30.5 |  | > 100 | 55.7 | 78.2 | 93.8
C(=C\C(Sc1ccccc1)c1ccccc1)/NNC1=NC(c2ccccc2)C(c2ccccc2)=NN1 (stereo not given) | > 100 | > 100 | > 100 | > 100 | > 100 | > 100 | > 100 | 56 | > 100 |  | > 100
COc1c(I)c(OC)c2c(c1I)O[C@@H]1OCC[C@H]21 | > 100 | 56.5 | > 100 | > 100 | 57.7 | 66.4 | 81 | > 100 | 70.5 | 63.7 | > 100
CC(=O)c1ccccc1NC(=O)C(=O)C(C(=O)c1ccccc1-c1ccccc1)C1OC(=O)c2ccccc21 (stereo not given) | 54.3 | > 100 | > 100 | 53 | 48.2 | 24.3 | 36.1 | 48 |  | 31.3 | > 100
